Experimental data taken from patent US20230346827A1 (priority 2020, published 2023).

Tested on: rats subjected to sTBI
Experiment: sTBI rats, LMW-DS 1, 5, 15 mg/kg s.c. 30 min post-TBI: HPLC of brain free amino acids (Example 4)
Format: in vivo, rat
Conditions: for HYS concentration in deproteinized brain homogenate / ILE concentration in deproteinized brain homogenate / LEU concentration in deproteinized brain homogenate / LYS concentration in deproteinized brain homogenate / PHE concentration in deproteinized brain homogenate / TAU concentration in deproteinized brain homogenate / TRP concentration in deproteinized brain homogenate / TYR concentration in deproteinized brain homogenate / VAL concentration in deproteinized brain homogenate: rats 7 days post-sTBI, mean ± S.D. of 12 animals
[1] = 15 mg/kg repeated, 7 d post-sTBI
[2] = repeated administration of 15 mg/kg b.w.
[3] = single administration 1 mg/kg b.w.
[4] = single administration 5 mg/kg b.w.
[5] = single administration 15 mg/kg b.w.

## sodium salt of dextran sulfate [LMW-DS]
1 mg/kg, 2 d post-sTBI
  ALA: 0.76 ± 0.08 nmol/g w.w.
  ARG: 0.13 ± 0.03 nmol/g w.w.
  ASN: 0.13 ± 0.02 nmol/g w.w.
  ASP: 4.17 ± 0.99 nmol/g w.w.
  CITR: 0.01 ± 0.01 nmol/g w.w.
  GABA: 1.87 ± 0.17 µmol/g w.w.
  GLN: 4.37 ± 0.59 nmol/g w.w.
  GLU: 12.52 ± 0.91 nmol/g w.w.
  GLY: 1.35 ± 0.26 nmol/g w.w.
  HYS: 0.08 ± 0.01 nmol/g w.w.
  ILE: 0.10 ± 0.02 nmol/g w.w.
  L-Cystat: 0.25 ± 0.05 nmol/g w.w.
  LEU: 0.09 ± 0.02 nmol/g w.w.
  LYS: 0.29 ± 0.11 nmol/g w.w.
  MET: 0.04 ± 0.01 nmol/g w.w.
  ORN: 0.02 ± 0.01 nmol/g w.w.
  PHE: 0.07 ± 0.03 nmol/g w.w.
  SAH: 0.07 ± 0.02 nmol/g w.w.
  SER: 0.91 ± 0.07 nmol/g w.w.
  TAU: 4.98 ± 0.47 nmol/g w.w.
  THR: 0.70 ± 0.15 nmol/g w.w.
  TRP: 0.02 ± 0.01 nmol/g w.w.
  TYR: 0.18 ± 0.03 nmol/g w.w.
  VAL: 0.07 ± 0.03 nmol/g w.w.
1 mg/kg, 7 d post-sTBI
  ALA: 0.57 ± 0.06 nmol/g w.w.
  ARG: 0.13 ± 0.02 nmol/g w.w.
  ASN: 0.10 ± 0.02 nmol/g w.w.
  ASP: 4.17 ± 0.67 nmol/g w.w.
  CITR: 0.03 ± 0.01 nmol/g w.w.
  GABA: 1.73 ± 0.18 µmol/g w.w.
  GLN: 4.10 ± 0.42 nmol/g w.w.
  GLU: 12.14 ± 1.02 nmol/g w.w.
  GLY: 0.98 ± 0.20 nmol/g w.w.
  L-Cystat: 0.24 ± 0.04 nmol/g w.w.
  MET: 0.03 ± 0.01 nmol/g w.w.
  ORN: 0.01 ± 0.01 nmol/g w.w.
  SAH: 0.04 ± 0.01 nmol/g w.w.
  SER: 0.92 ± 0.16 nmol/g w.w.
  THR: 0.71 ± 0.12 nmol/g w.w.
5 mg/kg, 2 d post-sTBI
  ALA: 0.79 ± 0.08 nmol/g w.w.
  ARG: 0.13 ± 0.03 nmol/g w.w.
  ASN: 0.17 ± 0.03 nmol/g w.w.
  ASP: 4.15 ± 0.95 nmol/g w.w.
  CITR: 0.02 ± 0.01 nmol/g w.w.
  GABA: 1.99 ± 0.18 µmol/g w.w.
  GLN: 4.55 ± 0.44 nmol/g w.w.
  GLU: 11.93 ± 0.55 nmol/g w.w.
  GLY: 1.43 ± 0.28 nmol/g w.w.
  HYS: 0.11 ± 0.02 nmol/g w.w.
  ILE: 0.10 ± 0.02 nmol/g w.w.
  L-Cystat: 0.31 ± 0.06 nmol/g w.w.
  LEU: 0.10 ± 0.02 nmol/g w.w.
  LYS: 0.37 ± 0.14 nmol/g w.w.
  MET: 0.05 ± 0.01 nmol/g w.w.
  ORN: 0.01 ± 0.01 nmol/g w.w.
  PHE: 0.07 ± 0.03 nmol/g w.w.
  SAH: 0.07 ± 0.02 nmol/g w.w.
  SER: 0.91 ± 0.07 nmol/g w.w.
  TAU: 5.15 ± 0.49 nmol/g w.w.
  THR: 0.77 ± 0.17 nmol/g w.w.
  TRP: 0.03 ± 0.01 nmol/g w.w.
  TYR: 0.20 ± 0.03 nmol/g w.w.
  VAL: 0.08 ± 0.03 nmol/g w.w.
5 mg/kg, 7 d post-sTBI
  ALA: 0.44 ± 0.05 nmol/g w.w.
  ARG: 0.15 ± 0.02 nmol/g w.w.
  ASN: 0.10 ± 0.02 nmol/g w.w.
  ASP: 3.63 ± 0.59 nmol/g w.w.
  CITR: 0.03 ± 0.01 nmol/g w.w.
  GABA: 1.63 ± 0.17 µmol/g w.w.
  GLN: 3.86 ± 0.40 nmol/g w.w.
  GLU: 11.82 ± 0.99 nmol/g w.w.
  GLY: 0.88 ± 0.15 nmol/g w.w.
  L-Cystat: 0.26 ± 0.04 nmol/g w.w.
  MET: 0.04 ± 0.01 nmol/g w.w.
  ORN: 0.01 ± 0.01 nmol/g w.w.
  SAH: 0.04 ± 0.01 nmol/g w.w.
  SER: 0.83 ± 0.14 nmol/g w.w.
  THR: 0.71 ± 0.15 nmol/g w.w.
[1]
  ALA: 0.47 ± 0.05 nmol/g w.w.
  ARG: 0.19 ± 0.02 nmol/g w.w.
  ASN: 0.10 ± 0.02 nmol/g w.w.
  ASP: 2.42 ± 0.39 nmol/g w.w.
  CITR: 0.03 ± 0.01 nmol/g w.w.
  GABA: 1.38 ± 0.14 µmol/g w.w.
  GLN: 3.88 ± 0.40 nmol/g w.w.
  GLU: 10.78 ± 0.91 nmol/g w.w.
  GLY: 0.78 ± 0.10 nmol/g w.w.
  L-Cystat: 0.44 ± 0.07 nmol/g w.w.
  MET: 0.05 ± 0.01 nmol/g w.w.
  ORN: 0.02 ± 0.01 nmol/g w.w.
  SAH: 0.04 ± 0.04 nmol/g w.w.
  SER: 0.79 ± 0.13 nmol/g w.w.
  THR: 0.77 ± 0.14 nmol/g w.w.
15 mg/kg, 2 d post-sTBI
  ALA: 0.68 ± 0.07 nmol/g w.w.
  ARG: 0.16 ± 0.04 nmol/g w.w.
  ASN: 0.17 ± 0.03 nmol/g w.w.
  ASP: 3.05 ± 0.42 nmol/g w.w.
  CITR: 0.01 ± 0.01 nmol/g w.w.
  GABA: 1.58 ± 0.14 µmol/g w.w.
  GLN: 4.21 ± 0.51 nmol/g w.w.
  GLU: 11.79 ± 0.55 nmol/g w.w.
  GLY: 1.18 ± 0.23 nmol/g w.w.
  HYS: 0.10 ± 0.01 nmol/g w.w.
  ILE: 0.06 ± 0.01 nmol/g w.w.
  L-Cystat: 0.41 ± 0.08 nmol/g w.w.
  LEU: 0.04 ± 0.01 nmol/g w.w.
  LYS: 0.32 ± 0.12 nmol/g w.w.
  MET: 0.03 ± 0.01 nmol/g w.w.
  ORN: 0.02 ± 0.01 nmol/g w.w.
  PHE: 0.06 ± 0.01 nmol/g w.w.
  SAH: 0.06 ± 0.02 nmol/g w.w.
  SER: 0.76 ± 0.06 nmol/g w.w.
  TAU: 4.59 ± 0.43 nmol/g w.w.
  THR: 0.61 ± 0.13 nmol/g w.w.
  TRP: 0.04 ± 0.01 nmol/g w.w.
  TYR: 0.17 ± 0.03 nmol/g w.w.
  VAL: 0.06 ± 0.03 nmol/g w.w.
15 mg/kg, 7 d post-sTBI
  ALA: 0.38 ± 0.04 nmol/g w.w.
  ARG: 0.14 ± 0.02 nmol/g w.w.
  ASN: 0.10 ± 0.02 nmol/g w.w.
  ASP: 2.29 ± 0.37 nmol/g w.w.
  CITR: 0.03 ± 0.01 nmol/g w.w.
  GABA: 1.43 ± 0.15 µmol/g w.w.
  GLN: 3.73 ± 0.38 nmol/g w.w.
  GLU: 10.25 ± 0.86 nmol/g w.w.
  GLY: 0.78 ± 0.12 nmol/g w.w.
  L-Cystat: 0.25 ± 0.04 nmol/g w.w.
  MET: 0.04 ± 0.01 nmol/g w.w.
  ORN: 0.01 ± 0.01 nmol/g w.w.
  SAH: 0.04 ± 0.01 nmol/g w.w.
  SER: 0.76 ± 0.12 nmol/g w.w.
  THR: 0.72 ± 0.14 nmol/g w.w.
[2]
  HYS concentration in deproteinized brain homogenate: 0.06 ± 0.01 nmol/g w.w.
  ILE concentration in deproteinized brain homogenate: 0.03 ± 0.01 nmol/g w.w.
  LEU concentration in deproteinized brain homogenate: 0.04 ± 0.01 nmol/g w.w.
  LYS concentration in deproteinized brain homogenate: 0.23 ± 0.07 nmol/g w.w.
  PHE concentration in deproteinized brain homogenate: 0.05 ± 0.01 nmol/g w.w.
  TAU concentration in deproteinized brain homogenate: 3.47 ± 0.44 nmol/g w.w.
  TRP concentration in deproteinized brain homogenate: 0.03 ± 0.01 nmol/g w.w.
  TYR concentration in deproteinized brain homogenate: 0.14 ± 0.02 nmol/g w.w.
  VAL concentration in deproteinized brain homogenate: 0.07 ± 0.01 nmol/g w.w.
[3]
  HYS concentration in deproteinized brain homogenate: 0.06 ± 0.01 nmol/g w.w.
  ILE concentration in deproteinized brain homogenate: 0.04 ± 0.01 nmol/g w.w.
  LEU concentration in deproteinized brain homogenate: 0.05 ± 0.01 nmol/g w.w.
  LYS concentration in deproteinized brain homogenate: 0.19 ± 0.06 nmol/g w.w.
  PHE concentration in deproteinized brain homogenate: 0.05 ± 0.01 nmol/g w.w.
  TAU concentration in deproteinized brain homogenate: 4.02 ± 0.51 nmol/g w.w.
  TRP concentration in deproteinized brain homogenate: 0.01 ± 0.01 nmol/g w.w.
  TYR concentration in deproteinized brain homogenate: 0.13 ± 0.02 nmol/g w.w.
  VAL concentration in deproteinized brain homogenate: 0.08 ± 0.01 nmol/g w.w.
[4]
  HYS concentration in deproteinized brain homogenate: 0.06 ± 0.01 nmol/g w.w.
  ILE concentration in deproteinized brain homogenate: 0.05 ± 0.01 nmol/g w.w.
  LEU concentration in deproteinized brain homogenate: 0.05 ± 0.01 nmol/g w.w.
  LYS concentration in deproteinized brain homogenate: 0.21 ± 0.04 nmol/g w.w.
  PHE concentration in deproteinized brain homogenate: 0.06 ± 0.01 nmol/g w.w.
  TAU concentration in deproteinized brain homogenate: 3.51 ± 0.44 nmol/g w.w.
  TRP concentration in deproteinized brain homogenate: 0.02 ± 0.01 nmol/g w.w.
  TYR concentration in deproteinized brain homogenate: 0.13 ± 0.02 nmol/g w.w.
  VAL concentration in deproteinized brain homogenate: 0.08 ± 0.01 nmol/g w.w.
[5]
  HYS concentration in deproteinized brain homogenate: 0.06 ± 0.01 nmol/g w.w.
  ILE concentration in deproteinized brain homogenate: 0.07 ± 0.01 nmol/g w.w.
  LEU concentration in deproteinized brain homogenate: 0.07 ± 0.01 nmol/g w.w.
  LYS concentration in deproteinized brain homogenate: 0.21 ± 0.05 nmol/g w.w.
  PHE concentration in deproteinized brain homogenate: 0.07 ± 0.01 nmol/g w.w.
  TAU concentration in deproteinized brain homogenate: 3.38 ± 0.44 nmol/g w.w.
  TRP concentration in deproteinized brain homogenate: 0.03 ± 0.01 nmol/g w.w.
  TYR concentration in deproteinized brain homogenate: 0.14 ± 0.02 nmol/g w.w.
  VAL concentration in deproteinized brain homogenate: 0.10 ± 0.01 nmol/g w.w.
